Measurements reported in PubChem BioAssay AID608 (Sanford-Burnham Center for Chemical Genomics, 2007).
Calls of active or inactive are those of the source. The rule behind the calls is not given here.

Target: Peptidyl-prolyl cis-trans isomerase FKBP1A (Homo sapiens) (UniProt P62942)
Experiment: FKBP12 binders, biophysical, NMR detection (AID 608)
Conditions: NMR binding, purified FKBP12

Peptidyl-prolyl cis-trans isomerase FKBP1A (Homo sapiens), sequence (P62942 whole entry, looked up): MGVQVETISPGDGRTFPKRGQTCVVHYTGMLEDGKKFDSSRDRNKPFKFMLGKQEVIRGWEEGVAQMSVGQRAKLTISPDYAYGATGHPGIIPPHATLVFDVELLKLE

Row | SMILES | Kd
1 | COc1c2c(cc3c1OCO3)C13C=C[C@H](OC)CC1N(C2)CC3O (stereo partly drawn) | > 4 mM (inactive)
2 | CN=C(C)c1c(O)n(C)c(=O)n(C)c1=O | > 4 mM (inactive)
3 | NC(=O)c1ccc(-c2csnn2)cc1 | > 4 mM (inactive)
4 | CC(=O)O[C@@H]1CC2C(C)(C)[C@@H](O)CC[C@]2(C)C2CC[C@@]3(C)[C@H](c4ccoc4)OC(=O)[C@H]4O[C@]43[C@@]21C (stereo partly drawn) | > 4 mM (inactive)
5 | O=C(O)c1ccc(-c2cccs2)s1 | > 4 mM (inactive)
6 | FC(F)(F)c1cc(-c2ccco2)nc(N2CCOCC2)n1 | > 4 mM (inactive)
7 | N#CCSc1nc(-c2ccccc2)cs1 | > 4 mM (inactive)
8 | CC(=O)c1cccc(NC2=NCC(C)(C)S2)c1 | > 4 mM (inactive)
9 | O=C(COc1ccccc1O)NCCO | > 4 mM (inactive)
10 | Nc1c2c3c(sc2nc(=O)n1N)CCCC3 | > 4 mM (inactive)
11 | O=C(O)Cn1nc(-c2ccccc2)c2ccccc2c1=O | > 4 mM (inactive)
12 | O=c1[nH]c2c(c(=O)n1C1CCCCC1)CCC2 | > 4 mM (inactive)
13 | O=C(Nc1nnc(-c2cccnc2)o1)c1ccccc1F | > 4 mM (inactive)
14 | Cn1nc(C(=O)NC2CCCCC2)c2ccccc2c1=O | > 4 mM (inactive)
15 | O=CN1CCN(C(=O)c2ccc(F)cc2)CC1 | > 4 mM (inactive)
16 | O=S1(=O)C=C(Nc2ccccc2)CC1 | 0.135 mM
17 | Cc1ccc(-c2nc(-c3cccnc3)no2)cc1 | > 4 mM (inactive)
18 | NCc1cccc2c1OCCCO2 | > 4 mM (inactive)
19 | Nc1ncnc(NC2CCS(=O)(=O)C2)c1[N+](=O)[O-] (stereo not drawn) | > 4 mM (inactive)
20 | Nc1ccccc1OC(F)(F)F | > 4 mM (inactive)
21 | Cc1[nH]n(-c2ccccc2)c(=O)c1[N+](=O)[O-] | > 4 mM (inactive)
22 | O=C(NCc1cccs1)c1nc2ncccn2n1 | > 4 mM (inactive)

Row | SMILES | Kd
23 | O=C(c1ccc(N2CCNCC2)cc1)c1cccnc1 | > 4 mM (inactive)
24 | O=C(O)CNCC(O)Cn1c2ccccc2c2ccccc21 (stereo not drawn) | > 4 mM (inactive)
25 | COc1c(OC)c2occc2c2oc(=O)ccc12 | > 4 mM (inactive)
26 | CC(=O)c1c(C)nc2ccccc2c1N | > 4 mM (inactive)
27 | CN(C)N1C(=O)C2CCCCC2C1=O (stereo not drawn) | > 4 mM (inactive)
28 | O/N=C1/CCCc2nonc21 | > 4 mM (inactive)
29 | O=C(O)CCCCCCCC(=O)O | > 4 mM (inactive)
30 | Cc1ccccc1N1C(=O)CC(=O)NC1=O | > 4 mM (inactive)
31 | CC(=O)c1c(C)nc(-c2cccs2)n1O | > 4 mM (inactive)
32 | C[N+](C)(C)CC(O)CC(=O)O (stereo not drawn) | > 4 mM (inactive)
33 | CC(=O)c1ccc(N2C(=O)C(C(C)C)NC2=S)cc1 (stereo not drawn) | > 4 mM (inactive)
34 | Cc1cc(C)n(-c2nncn2N)n1 | > 4 mM (inactive)
35 | COc1cccc(N2CCN(C(=O)c3cccnc3)CC2)c1 | > 4 mM (inactive)
36 | COC(=O)c1cncc(C(=O)OC)c1 | > 4 mM (inactive)
37 | COc1ccc2cnn(-c3ccccc3)c(=O)c2c1OC | > 4 mM (inactive)
38 | CC(=O)C1=C(O)C(=O)NC1c1ccccc1 (stereo not drawn) | > 4 mM (inactive)
39 | OCc1c[nH]c2ccccc12 | > 4 mM (inactive)
40 | CCCn1cnc2sc(C(N)=O)c(C)c2c1=O | > 4 mM (inactive)
41 | COc1ccccc1NC(C)=O | > 4 mM (inactive)
42 | Cn1c(=O)n(C)c2cc(C(N)=O)ccc21 | > 4 mM (inactive)
43 | Cc1cc(C)c(C)c(OCC(=O)N2CCOCC2)c1 | inactive
44 | O=C1NC(=S)NC(=O)C1=Cc1ccccc1O | > 4 mM (inactive)

Row | SMILES | Kd
45 | O=C(O)c1ccc(-n2cncn2)cc1 | > 4 mM (inactive)
46 | NC(=O)CSc1nnc(-c2ccncc2)o1 | > 4 mM (inactive)
47 | CSc1ccc(/C=c2\sc3ncnn3c2=O)cc1 | > 4 mM (inactive)
48 | O=C(Nc1cccnc1)c1cnn2cccnc12 | > 4 mM (inactive)
49 | CC(C)(C)c1cc(NC(=O)c2cccnc2)no1 | > 4 mM (inactive)
50 | O=C1CCC(=O)N1c1ccc(F)cc1 | > 4 mM (inactive)
51 | Cc1cc(/C=N/O)nc(=O)[nH]1 | > 4 mM (inactive)
52 | Cn1cc(Cl)c(C(=O)Nc2ccc(F)cc2F)n1 | > 4 mM (inactive)
53 | Cn1c(=O)[nH]c(=O)c2nsnc21 | > 4 mM (inactive)
54 | CC(=O)NC(=S)Nc1ccc(C(C)=O)cc1 | > 4 mM (inactive)
55 | CC(=O)CS(=O)(=O)c1ccccc1 | > 4 mM (inactive)
56 | CN1CCc2c(sc(N)c2C#N)C1 | > 4 mM (inactive)
57 | Cc1nn2c(=O)nc3sc4c(c3c2[nH]c1=O)CCCC4 | > 4 mM (inactive)
58 | Cc1ccc(SC(C)c2nc(-c3ccncc3)no2)cc1 (stereo not drawn) | inactive
59 | Cc1nn(-c2ccccc2)nc1CN | > 4 mM (inactive)
60 | CC1(C)SCC(C(=O)O)N1C=O (stereo not drawn) | > 4 mM (inactive)
61 | CCNC(CC(=O)Nc1ccc(O)cc1)C(=O)O (stereo not drawn) | > 4 mM (inactive)
62 | Cc1ccc(NC(=O)c2ccccc2)s1 | > 4 mM (inactive)
63 | S=c1nc[nH]c2c1cnn2-c1ccccc1 | > 4 mM (inactive)
64 | C=CCNC(=O)c1nn2cccnc2c1Cl | > 4 mM (inactive)
65 | Cc1c(N=Cc2ccco2)c(=O)n(-c2ccccc2)n1C | > 4 mM (inactive)
66 | Cc1cc(O)c(C=O)c(O)c1C(=O)O | > 4 mM (inactive)

Row | SMILES | Kd
67 | OCc1ccc2c(c1)OCCO2 | > 4 mM (inactive)
68 | Cc1cccc(-n2c(N)cc(=O)[nH]c2=S)c1C | > 4 mM (inactive)
69 | NC(CC(=O)O)C(=O)Nc1ccc(Cl)cc1 (stereo not drawn) | > 4 mM (inactive)
70 | Cc1ccccc1N1CCN(C(=O)C2CCCCC2)CC1 | > 4 mM (inactive)
71 | Cc1n[nH]c(=O)nc1N1CCN(c2ccccc2)CC1 | > 4 mM (inactive)
72 | CC(=O)C1CC[C@H]2C3CC[C@H]4C[C@H](O)CC[C@]4(C)C3CC[C@]12C (stereo partly drawn) | > 4 mM (inactive)
73 | CC(CCC(=O)O)[C@H]1CCC2C3CC[C@@H]4C[C@H](O)CC[C@]4(C)C3CC[C@@]21C (stereo partly drawn) | > 4 mM (inactive)
74 | CC1(C)O[C@H]2CC(=O)OC[C@]23[C@H]2CC[C@@]4(C)[C@H](c5ccoc5)OC(=O)[C@H]5O[C@]54[C@]2(C)C(=O)C[C@@H]13 | > 4 mM (inactive)
75 | Cn1ccnc1C(O)c1ccccc1 (stereo not drawn) | > 4 mM (inactive)
76 | O=C(O)CCCNC(=O)c1ccccc1C(=O)O | > 4 mM (inactive)
77 | C[C@@H]1CC[C@]2(C(=O)O)CC[C@]3(C)C(=CCC4[C@@]5(C)CC[C@H](O)C(C)(C)C5CC[C@]43C)C2[C@H]1C (stereo partly drawn) | > 4 mM (inactive)
78 | Cc1cn(C(=O)CN2C(=O)c3ccccc3C2=O)c(C)n1 | > 4 mM (inactive)
79 | CCCn1c(C)cc(=O)[nH]c1=O | > 4 mM (inactive)
80 | O=C1CS/C(=N/N=C/c2cccs2)N1 | > 4 mM (inactive)
81 | CC(NC(=O)c1ccco1)C1CCCO1 (stereo not drawn) | > 4 mM (inactive)
82 | CCc1noc(C)c1C(=O)N1CCCC1 | > 4 mM (inactive)
83 | COc1cc2c(cc1OC)-c1cc3ccc(OC)c(OC)c3c[n+]1CC2 | > 4 mM (inactive)
84 | Cc1nn(C)c(Cl)c1C(O)c1c(C)nn(C)c1Cl | > 4 mM (inactive)
85 | O=C(Nc1ccccc1C(F)(F)F)N1CCCCCC1 | > 4 mM (inactive)
86 | Cc1cc(=O)c2c(O)cc(O)c(C)c2o1 | > 4 mM (inactive)
87 | O=C1C2CC=CCC2C(=O)N1c1ccccc1 (stereo not drawn) | 0.0261 mM
88 | CS(=O)(=O)Nc1ccc(C(=O)N2CCCCC2)cc1 | > 4 mM (inactive)
